From patent publication US11584744B2 (UNIVERSITY OF WASHINGTON, priority 2017, dated 2023) come the findings set out here.

Converted amounts (≈) assume the structure as drawn. “And” between values parts separate entries of the source, which are not always exact repeats. Equal entries are not always repeated. Where two headings read alike, the source gives them in different places.

Experiment [1] relates to S. aureus MRSA (ATCC 43300). Description: MIC susceptibility testing. To be noted: Staphylococcus aureus; read-out: S. aureus MRSA (ATCC 43300) MIC. Format: cell-based. Put shortly:
(§1)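 CLSI broth microdilution in triplicate, 5×10^5 CFU/mL final, ≤0.5% DMSO; MHB for S. aureus, CA-MHB for E. coli and E. faecium, CA-MHB plus 3% laked horse blood for S. pyogenes (5% CO2).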

Experiment [2] relates to S. aureus MSSA (ATCC 19636). Nature of the experiment: MIC susceptibility testing. Format: cell-based. Conditions: Staphylococcus aureus; read-out: S. aureus MSSA (ATCC 19636) MIC. In a few lines: as §1
Experiment [3] has as its system S. aureus VISA (ATCC 700699). Nature of the experiment: MIC susceptibility testing. To be noted: Staphylococcus aureus; read-out: S. aureus VISA (ATCC 700699) MIC. Format: cell-based. Put shortly:
as §1

The test system of experiment [4] is S. pneumoniae (ATCC 49619). Nature of the experiment: MIC susceptibility testing. The class given is cell-based. To be noted: Streptococcus pneumoniae, ATCC49619, 18 h; medium with 3% laked horse blood; read-out: S. pneumoniae (ATCC 49619) MIC.
Experiment [5] concerns E. coli MB4827 (wild-type). Description: MIC against permeability strains of E. coli. The class given is cell-based. To be noted: Escherichia coli, read-out: MIC MB4827 (wild-type). As for the experimental part: (§2) Bacterial strains. Strains with ATCC designations were either obtained directly from the American Type Culture Collection (Manassas, Va.) or were kindly provided by the University of Washington Clinical Microbiology laboratory. Escherichia coli permeability mutants (properties shown in Table 1) were provided as a gift from Dr. Katherine Young at Merck (Rahway, N.J.).
(§3) Susceptibility testing: Minimum inhibitory concentration (MIC) determinations were performed in triplicate in 96-well round bottom microtiter plates (Corning, Corning N.Y.) as described by the Clinical and Laboratory Standards Institute (CLSI). Serial two-fold dilutions of compounds were added to plates in 50 μL volumes. An additional 50 μL of media containing bacterial cells (1×10^6 CFUs/mL) was then added to each well. Maximum DMSO concentrations were 0.5%. Plates were incubated at 37° C. for at least 18 h before reading the susceptibility result by optical absorbance (OD600) using a BioTek ELx800. The lowest concentration causing ≥90% growth inhibition compared to the untreated control was recorded as the MIC (and also corresponded to the visual MIC). MICs were measured at least twice and the higher value (if different) was recorded herein.

Another experiment has as its system E. coli MB4902 (lpxC). Nature of the experiment: microbe, parasite or virus in culture. To be noted: Escherichia coli, read-out: MIC MB4902 (lpxC). The class given is cell-based. The procedure:
as §2, §3

The test system of experiment [6] is E. coli MB5746 (lpxC, tolC). Nature of the experiment: microbe, parasite or virus in culture. To be noted: Escherichia coli, read-out: MIC MB5746 (lpxC, tolC). Format: cell-based. As for the experimental part:
as §2, §3

For a further experiment, the system named is E. coli MB5747 (tolC). Nature of the experiment: microbe, parasite or virus in culture. To be noted: Escherichia coli, read-out: MIC MB5747 (tolC). Format: cell-based. As for the experimental part:
as §2, §3

The next experiment concerns S. aureus (ATCC 29213). The class given is cell-based, Staphylococcus aureus. Conditions: 8× the MIC; for Resistance frequency (Expt. 1) / Resistance frequency (Expt. 2): 72 h; for Resistance frequency (average or greater #): two independent experiments. As for the experimental part: Resistance frequency rates determination: The spontaneous resistance frequency rates to test compounds was determined according to published methods. Agar selection plates were made by adding compound from DMSO stocks into molten Mueller Hinton agar in a 55° C. water bath. […] The final DMSO concentration was <0.1% per plate. Plates were dried in a sterile hood for 30 minutes prior to overnight storage at 4° C., and pre-warmed in the 37° C. incubator for 1 hour prior to assay.
A fresh overnight culture was diluted 1:50 in MHB and grown at 37° C. with shaking (150 rpm) until reaching an OD600 of 0.4 correlating to ˜2×10^9 CFUs/mL. Approximately 3 mL for a total of 6*10^9 CFUs were distributed onto 4 plates for each compound. Plates were incubated at 37° C. for 72 h prior to counting of colonies. The starting inoculum was also serially diluted and plated to quantify initial bacterial load. The resistance frequency was determined as the number of compound-resistant colonies divided by the total colonies plated.
Resistance frequency rates: The propensity for S. aureus to develop resistance to MetRS inhibitors was also studied (Table 6).

Another experiment deals with T1, MetRS (T. brucei) (Trypanosoma brucei brucei, UniProt Q38C91).
T1 sequence (Q38C91 1-773): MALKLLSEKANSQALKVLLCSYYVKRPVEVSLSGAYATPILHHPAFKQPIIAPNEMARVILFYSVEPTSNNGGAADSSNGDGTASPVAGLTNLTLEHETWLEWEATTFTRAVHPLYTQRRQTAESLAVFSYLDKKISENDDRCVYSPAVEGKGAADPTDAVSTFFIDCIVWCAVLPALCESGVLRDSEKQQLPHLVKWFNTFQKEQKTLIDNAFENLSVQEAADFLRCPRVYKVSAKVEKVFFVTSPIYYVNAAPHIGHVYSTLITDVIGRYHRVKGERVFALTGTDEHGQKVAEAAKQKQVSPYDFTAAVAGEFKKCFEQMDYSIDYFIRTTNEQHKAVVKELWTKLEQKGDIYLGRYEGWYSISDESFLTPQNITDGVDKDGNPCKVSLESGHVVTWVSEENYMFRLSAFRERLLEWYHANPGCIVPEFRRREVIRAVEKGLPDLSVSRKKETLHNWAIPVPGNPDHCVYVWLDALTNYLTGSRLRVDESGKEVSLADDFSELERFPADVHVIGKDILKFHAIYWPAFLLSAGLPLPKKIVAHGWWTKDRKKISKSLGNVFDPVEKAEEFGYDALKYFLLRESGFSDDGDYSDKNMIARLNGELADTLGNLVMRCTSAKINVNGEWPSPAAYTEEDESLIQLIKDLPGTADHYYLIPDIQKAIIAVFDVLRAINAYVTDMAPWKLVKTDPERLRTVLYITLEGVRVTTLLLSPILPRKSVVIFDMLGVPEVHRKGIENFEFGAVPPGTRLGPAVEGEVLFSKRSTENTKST
Description: MetRS (T. brucei) enzyme inhibition. The class given is biochemical.

The test system of another experiment is T. cruzi. Description: T. cruzi growth inhibition. Conditions: read-out: (E) T. cruzi EC50. Format: cell-based, Trypanosoma cruzi.
Another experiment has as its system C. parvum. Description: C. parvum growth inhibition. Format: cell-based, Cryptosporidium parvum. To be noted: read-out: (J) C. parvum EC50.

Regarding `Fc1ccc2nc(NCCCNCc3cc(Cl)cc(Cl)c3)[nH]c2n1` [Compound 1614, [(3,5-dichlorophenyl)methyl][3-({5-fluoro-3H-imidazo[4,5-b]pyridin-2-yl}amino)propyl]amine], the MIC is 5 µg/mL (≈ 13.6 µM) in [1], 2.5 µg/mL (≈ 6.79 µM) in [2], 10 µg/mL (≈ 27.2 µM) in experiment [3] and > 10 µg/mL in experiment [4].
Turning to `Fc1ccc2nc(NCCCN[C@@H]3CCNc4c(Cl)cc(Cl)cc43)[nH]c2n1` [Compound 1717, (4R)-6,8-dichloro—N-[3-({5-fluoro-3H-imidazo[4,5-b]pyridin-2-yl}amino)propyl]-1,2,3,4-tetrahydroquinolin-4-amine, reference compound], the MIC is 0.156 µg/mL (≈ 0.381 µM) in experiment [1]; 0.078 µg/mL (≈ 0.191 µM) in experiment [2]; 0.156 µg/mL (≈ 0.381 µM) in [3]; > 20 µg/mL in [4]; > 20 µg/mL in experiment [5]; > 20 µg/mL with E. coli MB4902 (lpxC). For the same compound, the MIC (in [6]; in the experiment on E. coli MB5747 (tolC)) was > 20 µg/mL each time. Also, the “Resistance frequency (Expt. 1)” value with S. aureus (ATCC 29213) is 2.89 × 10^−9. Besides, the “Resistance frequency (Expt. 2)” value with S. aureus (ATCC 29213) is on record as 5.43 × 10^−9.
What is called IC50 is the concentration needed to halve the response being measured. Higher therefore signals weaker potency. A word on the EC50: it is the concentration at which the effect is half-maximal. In the case of `CCn1c(Cc2ccc(Cl)cc2Cl)cn(Cc2nc3nc(F)ccc3[nH]2)c1=O` [Compound 2062, 4-[(2,4-dichlorophenyl)methyl]-3-ethyl-1-({5-fluoro-1H-imidazo[4,5-b]pyridin-2-yl}methyl)-2,3-dihydro-1H-imidazol-2-one], the half-maximal inhibitory concentration (IC50) on MetRS (T. brucei) is < 40 nM. In addition, the EC50 was 85.2 nM in the experiment with T. cruzi (Trypanosoma cruzi); 98.9 nM and 90.8 nM in the experiment on T. cruzi.
Turning to `CCn1c(Cc2ccc(OC)cc2Cl)cn(Cc2nc3nc(Cl)ccc3[nH]2)c1=O` [Compound 2093, 1-({5-chloro-1H-imidazo[4,5-b]pyridin-2-yl}methyl)-4-[(2-chloro-4-methoxyphenyl)methyl]-3-ethyl-2,3-dihydro-1H-imidazol-2-one], the MIC in [1] is 0.313 µg/mL (≈ 0.724 µM); in experiment [2], 0.313 µg/mL (≈ 0.724 µM); in experiment [3] it was 0.313 µg/mL (≈ 0.724 µM); in experiment [4], > 20 µg/mL; in [5], > 20 µg/mL; in the experiment with E. coli MB4902 (lpxC), > 20 µg/mL. In addition, the MIC (in [6]; in the experiment with E. coli MB5747 (tolC)) was > 20 µg/mL each time. In the experiment with S. aureus (ATCC 29213), the “Resistance frequency (Expt. 1)” value is 1.60 × 10^−8. Also, the “Resistance frequency (Expt. 2)” value in the experiment on S. aureus (ATCC 29213) is reported as 2.58 × 10^−8. In addition, in the experiment with S. aureus (ATCC 29213), the “Resistance frequency (average or greater #)” value is listed as 2.10 × 10^−8. Moreover, the IC50 on MetRS (T. brucei) is < 40 nM. Moreover, the concentration giving a half-maximal response (EC50) in the experiment with T. cruzi (Trypanosoma cruzi) is 8.28 nM; in the experiment on T. cruzi, 5.81 nM; in the experiment on C. parvum (Cryptosporidium parvum), 38 nM; in the experiment on C. parvum, 33 nM.
`CCn1c(Cc2ccc(OC)cc2Cl)cn(Cc2nc3nc(F)ccc3[nH]2)c1=O` [Compound 2114, 4-[(2-chloro-4-methoxyphenyl)methyl]-3-ethyl-1-({5-fluoro-1H-imidazo[4,5-b]pyridin-2-yl}methyl)-2,3-dihydro-1H-imidazol-2-one]: the IC50 against MetRS (T. brucei) was < 40 nM. Moreover, the results for the 50% effective concentration (EC50) in the experiment on T. cruzi (Trypanosoma cruzi), with T. cruzi and in the experiment on C. parvum (Cryptosporidium parvum) were 25.9 nM, 23.2 nM and 53 nM, respectively.
Regarding `COc1cc(Cl)c(-c2cccc3nc(Cc4nc5nc(Cl)ccc5[nH]4)cn23)cc1OC` [Compound 2144, 2-({5-chloro-1H-imidazo[4,5-b]pyridin-2-yl}methyl)-5-(2-chloro-4,5-dimethoxyphenyl)imidazo[1,2-a]pyridine], the MIC was 0.039 µg/mL (≈ 0.0858 µM) in experiment [1]; 0.078 µg/mL (≈ 0.172 µM) in [2]; 0.039 µg/mL (≈ 0.0858 µM) in [3]; > 20 µg/mL in [4]; > 20 µg/mL in experiment [5]; > 20 µg/mL with E. coli MB4902 (lpxC). Besides, the MIC (in experiment [6]; in the experiment on E. coli MB5747 (tolC)) was > 20 µg/mL throughout. Besides, the “Resistance frequency (Expt. 1)” value in the experiment with S. aureus (ATCC 29213) was 3.15 × 10^−9. In addition, the “Resistance frequency (Expt. 2)” value in the experiment with S. aureus (ATCC 29213) was 2.45 × 10^−8. The “Resistance frequency (average or greater #)” value with S. aureus (ATCC 29213) is reported as 1.38 × 10^−8. For the same compound, on MetRS (T. brucei), the IC50 was < 40 nM. Moreover, the values for the half-maximal effective concentration (EC50) in the experiment with T. cruzi (Trypanosoma cruzi), in the experiment on T. cruzi and in the experiment with C. parvum (Cryptosporidium parvum) were 13.5 nM, 7.79 nM and > 2000 nM, respectively.
Regarding `CC(=O)NC[C@H]1CN(c2ccc(N3CCOCC3)c(F)c2)C(=O)O1` [LNZ, linezolid], the MIC in [1] was found to be 2.5 µg/mL (≈ 7.41 µM); in [2] it was 1.25 µg/mL (≈ 3.71 µM); in experiment [3], 1.25 µg/mL (≈ 3.71 µM); in [4], 1.25 µg/mL (≈ 3.71 µM).
